Legend:
[1] = test system: Beet Armyworm (Spodoptera exigua); experiment: Bioassay on Beet Armyworm (BAW), 128-well diet tray assay; format: in vivo; settings: for pest or weed control at 50 µg/cm2: Beet Armyworm, Table ABC, read-out: BAW rating
Method: (§1) Example A: Bioassays on Beet Armyworm (Spodoptera Exigua, LAPHEG) (“BAW”), Corn Earworm (Helicoverpa Zea, HELIZE) (“CEW”), and Cabbage Looper (Trichoplusia Ni, TRIPNI) (“CL”)
(§2) Certain molecules disclosed in this document were tested against BAW, CEW, and CL using procedures described in the following examples. In the reporting of the results, the “BAW, CEW, & CL Rating Table” was used (See Table Section).
Bioassays on BAW were conducted using a 128-well diet tray assay. One to five second instar BAW larvae were placed in each well (3 mL) of the diet tray that had been previously filled with 1 mL of artificial diet to which 50 μg/cm^2 of the test molecule (dissolved in 50 μL of 90:10 acetone-water mixture) had been applied (to each of eight wells) and then allowed to dry. Trays were covered with a clear self-adhesive cover and held at 25° C., 14:10 light-dark for five to seven days. Percent mortality was recorded for the larvae in each well; activity in the eight wells was then averaged. The results are indicated in the table entitled “Table ABC: Biological Results” (See Table Section).
(§3) Bioassays on BAW and CL were conducted according to the procedures outlined in Example A: Bioassays on Beet Armyworm (“BAW”) and Cabbage Looper (“CL”) using the indicated concentrations.

[2] = test system: Cabbage Looper (Trichoplusia ni); experiment: Bioassay on Cabbage Looper (CL), 128-well diet tray assay; format: in vivo; settings: for pest or weed control at 50 µg/cm2: Cabbage Looper, Table ABC, read-out: CL rating
Method: as §1, §2
Bioassays on CL were conducted using a 128-well diet tray assay. One to five second instar CL larvae were placed in each well (3 mL) of the diet tray that had been previously filled with 1 mL of artificial diet to which 50 μg/cm^2 of the test molecule (dissolved in 50 μL of 90:10 acetone-water mixture) had been applied (to each of eight wells) and then allowed to dry. Trays were covered with a clear self-adhesive cover and held at 25° C., 14:10 light-dark for five to seven days. Percent mortality was recorded for the larvae in each well; activity in the eight wells was then averaged. The results are indicated in the table entitled “Table ABC: Biological Results” (See Table Section).
as §3

SMILES | pest or weed control at 50 µg/cm2 [1] | pest or weed control at 50 µg/cm2 [2] | other results
C=CCNC(=O)C1(NC(=O)c2ccc(/C(F)=C/C(c3cc(Cl)c(Cl)c(Cl)c3)C(F)(F)F)cc2C)CC1 (centres unmarked) [F9, (Z)—N-(1-(Allylcarbamoyl)cyclopropyl)-2-methyl-4-(1,4,4,4-tetrafluoro-3-(3,4,5-trichlorophenyl)but-1-en-1-yl)benzamide] | 50 to 100% | 50 to 100% | –
C=C(C)c1cc(C(/C=C(\F)c2ccc(C(=O)N[C@H](C)C(=O)NCC(F)(F)F)c(C(F)(F)F)c2)C(F)(F)F)cc(Cl)c1Cl (stereo partly drawn) [F187, 4-((Z)-3-(3,4-Dichloro-5-(prop-1-en-2-yl)phenyl)-1,4,4,4-tetrafluoro-but-1-en-1-yl)-N—((R)-1-oxo-1-((2,2,2-trifluoroethyl)amino)propan-2-yl)-2-(trifluoromethyl)benzamide] | 50 to 100% | 50 to 100% | –
C[C@@H](NC(=O)c1ccc(/C(F)=C/C(c2cc(Cl)cc(Br)c2)C(F)(F)F)cc1C(F)(F)F)C(=O)NCC(F)(F)F (some centres unmarked) [F109] | 50 to 100% | 50 to 100% | –
O=C(NC1(C(=O)CCC(F)(F)F)CC1)c1ccc(/C(F)=C/C(c2cc(Cl)c(Cl)c(Cl)c2)C(F)(F)F)cc1C(F)(F)F (centres unmarked) [F56, (Z)-4-(1,4,4,4-Tetrafluoro-3-(3,4,5-trichlorophenyl)but-1-en-1-yl)-N-(1-(4,4,4-trifluorobutanoyl)cyclopropyl)-2-(trifluoromethyl)benzamide] | 50 to 100% | 50 to 100% | –
O=C(N[C@@H]1CON(CC(F)(F)F)C1=O)c1ccc(/C(F)=C/C(c2cc(Cl)c(Cl)c(Cl)c2)C(F)(F)F)cc1C(F)(F)F (stereo partly drawn) [F106, N—((R)-3-Oxo-2-(2,2,2-trifluoroethyl)isoxazolidin-4-yl)-4-((Z)-1,4,4,4-tetrafluoro-3-(3,4,5-trichlorophenyl)but-1-en-1-yl)-2-(trifluoromethyl)benzamide] | 50 to 100% | 50 to 100% | –
CNC(=O)[C@@H](C)NC(=O)c1ccc(/C(F)=C/C(c2cc(Cl)c(Cl)c(Cl)c2)C(F)(F)F)cc1C(F)(F)F (stereo partly drawn) [F173, N—((R)-1-(Methylamino)-1-oxopropan-2-yl)-4-((Z)-1,4,4,4-tetrafluoro-3-(3,4,5-trichlorophenyl)but-1-en-1-yl)-2-(trifluoromethyl)benzamide] | 50 to 100% | 50 to 100% | –
O=C(CNC(=O)c1ccc(/C(F)=C/C(c2cc(Cl)c(Cl)c(Cl)c2)C(F)(F)F)cc1Br)NCC(F)(F)F (centres unmarked) [F19, (Z)-2-Bromo-N-(2-oxo-2-((2,2,2-trifluoroethyl)amino)ethyl)-4-(1,4,4,4-tetrafluoro-3-(3,4,5-trichlorophenyl)but-1-en-1-yl)benzamide] | 50 to 100% | 50 to 100% | mortality at 0.05 µg/cm2 ([1]; 168 h, 0.05 μg/cm^2 on artificial diet, second instar larvae, five to seven days, read-out: BAW Percent control (or mortality)): 100%; mortality at 0.5 µg/cm2 ([1]; 168 h, 0.5 μg/cm^2 on artificial diet, second instar larvae, five to seven days, read-out: BAW Percent control (or mortality)): 100%; mortality at 5 µg/cm2 ([1]; 168 h, 5 μg/cm^2 on artificial diet, second instar larvae, five to seven days, read-out: BAW Percent control (or mortality)): 100%; mortality at 0.05 µg/cm2 ([2]; 168 h, 0.05 μg/cm^2 on artificial diet, second instar larvae, five to seven days, read-out: CL Percent control (or mortality)): 100%; mortality at 0.5 µg/cm2 ([2]; 168 h, 0.5 μg/cm^2 on artificial diet, second instar larvae, five to seven days, read-out: CL Percent control (or mortality)): 100%; mortality at 5 µg/cm2 ([2]; 168 h, 5 μg/cm^2 on artificial diet, second instar larvae, five to seven days, read-out: CL Percent control (or mortality)): 100%
C[C@@H](NC(=O)c1ccc(/C(F)=C/C(c2cc(Cl)cc(C(C)(F)F)c2)C(F)(F)F)cc1C(F)(F)F)C(=O)NCC(F)(F)F (stereo partly drawn) [F175, 4-((Z)-3-(3-Chloro-5-(1,1-difluoroethyl)phenyl)-1,4,4,4-tetrafluorobut-1-en-1-yl)-N—((R)-1-oxo-1-((2,2,2-trifluoroethyl)amino)propan-2-yl)-2-(trifluoromethyl)benzamide] | 50 to 100% | 50 to 100% | –
O=C(CNC(=O)c1ccc(/C(F)=C/C(c2cc(F)c(F)c(Br)c2)C(F)(F)F)cc1C(F)(F)F)NCC(F)(F)F (centres unmarked) [F217, (Z)-4-(3-(3-Bromo-4,5-difluorophenyl)-1,4,4,4-tetrafluorobut-1-en-1-yl)-N-(2-oxo-2-((2,2,2-trifluoroethyl)amino)ethyl)-2-(trifluoromethyl)benzamide] | 50 to 100% | 50 to 100% | –
C[C@@H](NC(=O)c1ccc(/C(F)=C/C(c2ccc(Br)c(F)c2)C(F)(F)F)cc1C(F)(F)F)C(=O)NCC(F)(F)F (stereo partly drawn) [F170, 4-((Z)-3-(4-Bromo-3-fluorophenyl)-1,4,4,4-tetrafluorobut-1-en-1-yl)-N—((R)-1-oxo-1-((2,2,2-trifluoroethyl)amino)propan-2-yl)-2-(trifluoromethyl)benzamide] | 50 to 100% | 50 to 100% | –
CCCCNC(=O)[C@@H](C)NC(=O)c1ccc(/C(F)=C/C(c2cc(Cl)c(Cl)c(Cl)c2)C(F)(F)F)cc1C(F)(F)F (stereo partly drawn) [F16, N—((R)-1-(Butylamino)-1-oxopropan-2-yl)-4-((Z)-1,4,4,4-tetrafluoro-3-(3,4,5-trichlorophenyl)but-1-en-1-yl)-2-(trifluoromethyl)benzamide] | 50 to 100% | 50 to 100% | –
C[C@@H](NC(=O)c1ccc(/C(F)=C/C(c2cc(Cl)cc(Cl)c2)C(F)(F)F)cc1C(F)(F)F)C(=O)NCC(F)(F)F (stereo partly drawn) [F105, 4-((Z)-3-(3,5-Dichlorophenyl)-1,4,4,4-tetrafluorobut-1-en-1-yl)-N—((R)-1-oxo-1-((2,2,2-trifluoroethyl)amino)propan-2-yl)-2-(trifluoromethyl)benzamide] | 50 to 100% | 50 to 100% | –
F/C(=C\C(c1cc(Cl)c(Cl)c(Cl)c1)C(F)(F)F)c1ccc(C(=S)NCC(=S)NCC(F)(F)F)c(C(F)(F)F)c1 (centres unmarked) [PF88, (Z)-4-(1,4,4,4-tetrafluoro-3-(3,4,5-trichlorophenyl)but-1-en-1-yl)-N-(2-thioxo-2-((2,2,2-trifluoroethyl)amino)ethyl)-2-(trifluoromethyl)benzothioamide] | 50 to 100% | 50 to 100% | –
C=Cc1cc(C(/C=C(\F)c2ccc(C(=O)N[C@H](C)C(=O)NCC(F)(F)F)c(C(F)(F)F)c2)C(F)(F)F)cc(Cl)c1Cl (stereo partly drawn) [F186, 4-((Z)-3-(3,4-dichloro-5-vinylphenyl)-1,4,4,4-tetrafluorobut-1-en-1-yl)-N—((R)-1-oxo-1-((2,2,2-trifluoroethyl)amino)propan-2-yl)-2-(trifluoromethyl)benzamide] | 50 to 100% | 50 to 100% | –
Cc1cc(C(/C=C(\F)c2ccc(C(=O)NC3(C(=O)N(C)CC(F)(F)F)CC3)c(C(F)(F)F)c2)C(F)(F)F)ccc1Cl (centres unmarked) [PF51, (Z)-4-(3-(4-Chloro-3-methylphenyl)-1,4,4,4-tetrafluorobut-1-en-1-yl)-N-(1-(methyl(2,2,2-trifluoroethyl)carbamoyl)cyclopropyl)-2-(trifluoromethyl)benzamide] | 50 to 100% | 50 to 100% | –
CC(NC(=O)CNC(=O)c1ccc(/C(F)=C/C(c2cc(Cl)c(Cl)c(Cl)c2)C(F)(F)F)cc1C(F)(F)F)C(F)(F)F (centres unmarked) [F65, (Z)—N-(2-Oxo-2-((1,1,1-trifluoropropan-2-yl)amino)ethyl)-4-(1,4,4,4-tetrafluoro-3-(3,4,5-trichlorophenyl)but-1-en-1-yl)-2-(trifluoromethyl)benzamide] | 50 to 100% | 50 to 100% | –
C/C=C/c1cc(C(/C=C(\F)c2ccc(C(=O)N[C@H](C)C(=O)NCC(F)(F)F)c(C(F)(F)F)c2)C(F)(F)F)cc(Cl)c1Cl (stereo partly drawn) [F188, 4-((Z)-3-(3,4-Dichloro-5-((E)-prop-1-en-1-yl)phenyl)-1,4,4,4-tetrafluorobut-1-en-1-yl)-N—((R)-1-oxo-1-((2,2,2-trifluoroethyl)amino)propan-2-yl)-2-(trifluoromethyl)benzamide] | 50 to 100% | 50 to 100% | –
O=C(CNC(=O)c1ccc(/C(F)=C/C(c2ccc(Cl)c(Cl)c2)C(F)(F)F)cc1Br)NCC(F)(F)F (centres unmarked) [F124, (Z)-2-Bromo-4-(3-(3,4-dichlorophenyl)-1,4,4,4-tetrafluorobut-1-en-1-yl)-N-(2-oxo-2-((2,2,2-trifluoroethyl)amino)ethyl)benzamide] | 50 to 100% | 50 to 100% | –
C[C@@H](NC(=O)c1ccc(/C(F)=C/C(c2cc(Cl)cc(C(F)(F)F)c2)C(F)(F)F)cc1C(F)(F)F)C(=O)N(C)CC(F)(F)F (stereo partly drawn) [PF43, 4-((Z)-3-(3-Chloro-5-(trifluoromethyl)phenyl)-1,4,4,4-tetrafluorobut-1-en-1-yl)-N—((R)-1-(methyl(2,2,2-trifluoroethyl)amino)-1-oxopropan-2-yl)-2-(trifluoromethyl)benzamide] | 50 to 100% | 50 to 100% | –
